For the assay, the target named is T1, chimeric human H3 receptor (Homo sapiens, UniProt Q9Y5N1).
T1 construct: rat Galpha-i2 (Gnai2, rat); made in house; host or cells: Sf9 insect cells (baculovirus); P2 membranes
The experiment in a line: Chimeric human H3 receptor screening GTP binding assay (inhibition of histamine-stimulated GTP-gamma35S binding, Example 8). In kind it is biochemical. The gist of the method: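 Compound tested at 4 μM against 1 μM histamine stimulation; 125 pM GTP-gamma35S binding measured by filtration and scintillation after 60 min at room temperature. Membranes from Sf9 cells expressing chimeric human H3 plus G-protein subunits, in Tris pH 7.4/NaCl/MgCl2/GDP buffer; values are % inhibition after nonspecific subtraction.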
In general terms: GTPγS is a poorly hydrolysed GTP analogue; its binding reports G protein activation.

Where [1] appears, read: 1 h, assay described in Example 8, symbol "!" in column headed Ki, read-out: Ki ("!": percent inhibition of agonist-induced GTP-gammaS binding to H3).
[2] abbreviates: 1 h, assay of Example 8, symbol "!" in column headed Ki, read-out: percent inhibition of agonist-induced GTP-gammaS binding to H3.
Where [3] appears, read: symbol ! in Ki, test compound 4 μM, 1 μM histamine, read-out: percent inhibition of agonist-induced GTP-gammaS binding to H3.

Where two headings read alike, the source gives them in different places. A value given as a limit tells only on which side of the number the result lay.

T1 sequence (Q9Y5N1 with tags, fused parts or gaps): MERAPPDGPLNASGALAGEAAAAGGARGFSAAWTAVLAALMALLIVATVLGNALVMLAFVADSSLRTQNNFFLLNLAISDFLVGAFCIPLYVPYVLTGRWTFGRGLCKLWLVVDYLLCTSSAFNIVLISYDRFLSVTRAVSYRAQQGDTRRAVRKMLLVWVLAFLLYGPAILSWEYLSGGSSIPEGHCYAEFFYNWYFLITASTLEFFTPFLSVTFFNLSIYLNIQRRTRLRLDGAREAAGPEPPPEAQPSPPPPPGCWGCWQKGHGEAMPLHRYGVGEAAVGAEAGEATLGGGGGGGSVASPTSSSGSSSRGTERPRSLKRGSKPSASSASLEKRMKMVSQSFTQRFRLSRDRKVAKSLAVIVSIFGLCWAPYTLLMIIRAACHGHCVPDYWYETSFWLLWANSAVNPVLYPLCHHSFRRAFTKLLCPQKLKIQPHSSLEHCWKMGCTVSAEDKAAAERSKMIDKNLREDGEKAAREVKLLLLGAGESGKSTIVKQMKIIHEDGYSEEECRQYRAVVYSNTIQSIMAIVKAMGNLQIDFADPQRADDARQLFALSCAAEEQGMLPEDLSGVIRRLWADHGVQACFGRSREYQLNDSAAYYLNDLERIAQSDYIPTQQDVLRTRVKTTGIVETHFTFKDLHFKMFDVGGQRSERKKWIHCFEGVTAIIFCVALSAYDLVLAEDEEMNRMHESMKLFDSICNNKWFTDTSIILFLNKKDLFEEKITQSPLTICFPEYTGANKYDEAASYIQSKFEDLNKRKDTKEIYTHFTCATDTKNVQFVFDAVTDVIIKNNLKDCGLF

The term inhibition denotes the change of the read-out against control, counted positive when it falls. `Nc1cc(Cl)ccc1C(=O)N1CCc2cnc(N3CCN(C4CCC4)CC3)nc2CC1` [Compound 540, 5-chloro-2-{[2-(4-cyclobutylpiperazin-1-yl)-5,6,8,9-tetrahydro-7H-pyrimido[4,5-d]azepin-7-yl]carbonyl}aniline]: the inhibition at 4 µM under setting [1] is not below 90%.

With `O=C(COc1ccccc1Cl)N1CCc2cnc(N3CCN(C4CCC4)CC3)nc2CC1` [Compound 320, 7-[(2-chlorophenoxy)acetyl]-2-(4-cyclobutylpiperazin-1-yl)-6,7,8,9-tetrahydro-5H-pyrimido[4,5-d]azepine], under setting [2], the inhibition at 4 µM was not below 90%.

`COc1ccccc1C(=O)N1CCc2c(ncnc2N2CCN(C3CCC3)CC2)C1` [Compound 28, 4-(4-cyclobutylpiperazin-1-yl)-7-(2-methoxybenzoyl)-5,6,7,8-tetrahydropyrido[3,4-d]pyrimidine]: under setting [3], the inhibition at 4 µM was not below 90%.

Regarding `O=C(Cc1c(Cl)ccc(Cl)c1Cl)N1CCc2cnc(N3CCN(C4CCC4)CC3)nc2CC1` [Compound 300, 2-(4-cyclobutylpiperazin-1-yl)-7-[(2,3,6-trichlorophenyl)acetyl]-6,7,8,9-tetrahydro-5H-pyrimido[4,5-d]azepine], the inhibition at 4 µM under setting [2] is not below 90%.

For the molecule `c1ccc(CN2CCc3c(ncnc3N3CCN(C4CCC4)CC3)C2)cc1` [Compound 1, 7-Benzyl-4-(4-cyclobutylpiperazin-1-yl)-5,6,7,8-tetrahydropyrido[3,4-d]pyrimidine], the inhibition at 4 µM (test compound 4 μM, 1 μM histamine, read-out: percent inhibition of agonist-induced GTP-gammaS binding to H3) was not below 90%.

For the molecule `Cc1ccc(CN2CCc3nc(N4CCN(C5CCC5)CC4)ncc3C2)cc1C` [Compound 637, 2-(4-cyclobutylpiperazin-1-yl)-6-(3,4-dimethylbenzyl)-5,6,7,8-tetrahydropyrido[4,3-d]pyrimidine], the inhibition at 4 µM under setting [3] is not below 90%.

`COc1ccc(CN2CCc3c(ncnc3N3CCN(C4CCC4)CC3)C2)c(OC)c1` [Compound 79, 4-(4-cyclobutylpiperazin-1-dimethoxybenzyl)-5,6,7,8-tetrahydropyrido[3,4-d]pyrimidine]: under setting [3], the inhibition at 4 µM is not below 90%.

As for `O=C(Cc1ccc(F)cc1F)N1CCc2cnc(N3CCN(C4CCC4)CC3)nc2CC1` [Compound 286, 2-(4-cyclobutylpiperazin-1-yl)-7-[(2,4-difluorophenyl)acetyl]-6,7,8,9-tetrahydro-5H-pyrimido[4,5-d]azepine], the inhibition at 4 µM under setting [2] was not below 90%.

As for `O=C(Cc1c(F)cccc1F)N1CCc2cnc(N3CCN(C4CCC4)CC3)nc2CC1` [Compound 291, 2-(4-cyclobutylpiperazin-1-yl)-7-[(2,6-difluorophenyl)acetyl]-6,7,8,9-tetrahydro-5H-pyrimido[4,5-d]azepine], the inhibition at 4 µM under setting [2] was not below 90%.

On to `O=C(Cc1ccc(OC(F)(F)F)cc1)N1CCc2cnc(N3CCN(C4CCC4)CC3)nc2CC1` [Compound 278, 2-(4-cyclobutylpiperazin-1-yl)-7-{[4-(trifluoromethoxy)phenyl]acetyl}-6,7,8,9-tetrahydro-5H-pyrimido[4,5-d]azepine], for which the inhibition at 4 µM under setting [2] was not below 90%.

`COc1ccccc1CN1CCc2ncnc(N3CCN(C4CCC4)CC3)c2CC1` [Compound 157, 4-(4-cyclobutylpiperazin-1-yl)-7-(2-methoxybenzyl)-6,7,8,9-tetrahydro-5H-pyrimido[4,5-d]azepine]: the inhibition at 4 µM under setting [3] was not below 90%.

Regarding `CC(=O)c1ccc(N2CCc3cnc(N4CCN(C5CCC5)CC4)nc3CC2)nc1` [Compound 185, 1-{6-[2-(4-cyclobutylpiperazin-1-yl)-5,6,8,9-tetrahydro-7H-pyrimido[4,5-d]azepin-7-yl]pyridin-3-yl}ethanone], under setting [2], the inhibition at 4 µM was not below 90%.

In the case of `CCCCN1CCc2c(ncnc2N2CCN(C3CCC3)CC2)C1` [Compound 83, 7-butyl-4-(4-cyclobutylpiperazin-1-yl)-5,6,7,8-tetrahydropyrido[3,4-d]pyrimidine], the inhibition at 4 µM under setting [3] is not below 90%.

As for `Cc1ccc(CN2CCc3ncnc(N4CCN(C5CCC5)CC4)c3CC2)cc1` [Compound 149, 4-(4-cyclobutylpiperazin-1-yl)-7-(4-methylbenzyl)-6,7,8,9-tetrahydro-5H-pyrimido[4,5-d]azepine], the inhibition at 4 µM under setting [3] was not below 90%.

As to `CC(Oc1ccc(Cl)cc1Cl)C(=O)N1CCc2cnc(N3CCN(C4CCC4)CC3)nc2CC1` (centres unmarked) [Compound 338, 2-(4-cyclobutylpiperazin-1-yl)-7-[2-(2,4-dichlorophenoxy)propanoyl]-6,7,8,9-tetrahydro-5H-pyrimido[4,5-d]azepine], under setting [2], the inhibition at 4 µM is not below 90%.

Consider `Cc1cccc(CC(=O)N2CCc3cnc(N4CCN(C5CCC5)CC4)nc3CC2)c1` [Compound 514, 2-(4-cyclobutylpiperazin-1-yl)-7-[(3-methylphenyl)acetyl]-6,7,8,9-tetrahydro-5H-pyrimido[4,5-d]azepine], for which the inhibition at 4 µM under setting [1] was not below 90%.

In the case of `O=C(Cc1ccccc1Cl)N1CCc2cnc(N3CCN(C4CCC4)CC3)nc2CC1` [Compound 294, 7-[(2-chlorophenyl)acetyl]-2-(4-cyclobutylpiperazin-1-yl)-6,7,8,9-tetrahydro-5H-pyrimido[4,5-d]azepine], the inhibition at 4 µM under setting [2] is not below 90%.

With `Cc1cccc(C(=O)N2CCc3cnc(N4CCN(C5CCC5)CC4)nc3CC2)c1N` [Compound 537, 2-{[2-(4-cyclobutylpiperazin-1-yl)-5,6,8,9-tetrahydro-7H-pyrimido[4,5-d]azepin-7-yl]carbonyl}-6-methylaniline], the inhibition at 4 µM under setting [1] is not below 90%.

`O=C(c1ccoc1)N1CCc2c(ncnc2N2CCN(C3CCC3)CC2)C1` [Compound 33, 4-(4-cyclobutylpiperazin-1-yl)-7-(3-furoyl)-5,6,7,8-tetrahydropyrido[3,4-d]pyrimidine]: the inhibition at 4 µM under setting [3] was not below 90%.

On to `CC(C1CCCCC1)N1CCc2c(ncnc2N2CCN(C3CCC3)CC2)C1` (centres unmarked) [Compound 126, 4-(4-cyclobutylpiperazin-1-yl)-7-(1-cyclohexylethyl)-5,6,7,8-tetrahydropyrido[3,4-d]pyrimidine], for which the inhibition at 4 µM under setting [3] is not below 90%.

`CCC(C)CN1CCc2nc(N3CCN(C4CCC4)CC3)ncc2C1` (centres unmarked) [Compound 632, 2-(4-cyclobutylpiperazin-1-yl)-6-(2-methylbutyl)-5,6,7,8-tetrahydropyrido[4,3-d]pyrimidine]: the inhibition at 4 µM under setting [3] was not below 90%.

Turning to `O=C(/C=C/c1cc2c(cc1Br)OCO2)N1CCc2cnc(N3CCN(C4CCC4)CC3)nc2CC1` [Compound 589, 7-[(2E)-3-(6-bromo-1,3-benzodioxol-5-yl)prop-2-enoyl]-2-(4-cyclobutylpiperazin-1-yl)-6,7,8,9-tetrahydro-5H-pyrimido[4,5-d]azepine], under setting [2], the inhibition at 4 µM was not below 90%.

As for `COc1ncccc1C(=O)N1CCc2cnc(N3CCN(C4CCC4)CC3)nc2CC1` [Compound 498, 2-(4-cyclobutylpiperazin-1-yl)-7-[(2-methoxypyridin-3-yl)carbonyl]-6,7,8,9-tetrahydro-5H-pyrimido[4,5-d]azepine], the inhibition at 4 µM under setting [1] is not below 90%.

For the molecule `CC(C)(C)c1ccc(C(=O)N2CCc3cnc(N4CCN(C5CCC5)CC4)nc3CC2)cc1` [Compound 364, 7-(4-tert-butylbenzoyl)-2-(4-cyclobutylpiperazin-1-yl)-6,7,8,9-tetrahydro-5H-pyrimido[4,5-d]azepine], the inhibition at 4 µM under setting [2] is not below 90%.

On to `O=C(/C=C/c1c(Cl)cccc1Cl)N1CCc2cnc(N3CCN(C4CCC4)CC3)nc2CC1` [Compound 583, 2-(4-cyclobutylpiperazin-1-yl)-7-[(2E)-3-(2,6-dichlorophenyl)prop-2-enoyl]-6,7,8,9-tetrahydro-5H-pyrimido[4,5-d]azepine], for which the inhibition at 4 µM under setting [2] is not below 90%.

Take `Cc1cc(C(=O)N2CCc3cnc(N4CCN(C5CCC5)CC4)nc3CC2)cc(Cl)n1` [Compound 484, 7-(2-chloro-6-methylisonicotinoyl)-2-(4-cyclobutylpiperazin-1-yl)-6,7,8,9-tetrahydro-5H-pyrimido[4,5-d]azepine]: the inhibition at 4 µM under setting [1] is not below 90%.

Take `O=C(/C=C/c1ccc(F)cc1)N1CCc2cnc(N3CCN(C4CCC4)CC3)nc2CC1` [Compound 548, 2-(4-cyclobutylpiperazin-1-yl)-7-[(2E)-3-(4-fluorophenyl)prop-2-enoyl]-6,7,8,9-tetrahydro-5H-pyrimido[4,5-d]azepine]: the inhibition at 4 µM under setting [1] is not below 90%.

For the molecule `Cc1ccc(C(=O)N2CCc3cnc(N4CCN(C5CCC5)CC4)nc3CC2)s1` [Compound 445, 2-(4-cyclobutylpiperazin-1-yl)-7-[(5-methyl-2-thienyl)carbonyl]-6,7,8,9-tetrahydro-5H-pyrimido[4,5-d]azepine], under setting [1], the inhibition at 4 µM is not below 90%.

Take `O=C(C(c1ccccc1)C1CCCCC1)N1CCc2cnc(N3CCN(C4CCC4)CC3)nc2CC1` (centres unmarked) [Compound 355, 2-(4-cyclobutylpiperazin-1-yl)-7-[cyclohexyl(phenyl)acetyl]-6,7,8,9-tetrahydro-5H-pyrimido[4,5-d]azepine]: the inhibition at 4 µM under setting [2] is not below 90%.

On to `O=C(c1ccno1)N1CCc2cnc(N3CCN(C4CCC4)CC3)nc2CC1` [Compound 200, 2-(4-cyclobutylpiperazin-1-yl)-7-(isoxazol-5-ylcarbonyl)-6,7,8,9-tetrahydro-5H-pyrimido[4,5-d]azepine], for which, under setting [2], the inhibition at 4 µM was not below 90%.

As to `COc1cc(/C=C/C(=O)N2CCc3cnc(N4CCN(C5CCC5)CC4)nc3CC2)ccc1OCc1ccccc1` [Compound 561, 7-{(2E)-3-[4-(benzyloxy)-3-methoxyphenyl]prop-2-enoyl}-2-(4-cyclobutylpiperazin-1-yl)-6,7,8,9-tetrahydro-5H-pyrimido[4,5-d]azepine], the inhibition at 4 µM under setting [1] is not below 90%.

On to `c1cncc(CN2CCc3cnc(N4CCN(C5CCC5)CC4)nc3CC2)c1` [Compound 239, 2-(4-cyclobutylpiperazin-1-yl)-7-(pyridin-3-ylmethyl)-6,7,8,9-tetrahydro-5H-pyrimido[4,5-d]azepine], for which, under setting [2], the inhibition at 4 µM was not below 90%.

For the origin of these results see US20080051387A1, “TETRAHYDROPYRIDO[3,4-D]PYRIMIDINES AND RELATED ANALOGUES” (priority 2006, published 2008).
